Test results taken from article PMC12394658, “Discovery of Zharp1-163 as a dual inhibitor of ferroptosis and necroptosis for the treatment of inflammatory disorders and kidney injury” (Cell Death Discovery, 2025).

What was measured:
Test in all cases: biochemical
Set-up in all cases: Kinase selectivity panel of 81 human kinases, ADP-Glo or HTRF, per cent inhibition at 1 uM
ALK4 = molecular target: T1, ALK4 (Homo sapiens, UniProt P36896)
T1 construct: gene ACVR1B
Procedure, shortened: (§1)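 Kinase-panel selectivity profiling of 81 kinases with compound at 1000 nM.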

CHK1 = molecular target: T2, CHK1 (Homo sapiens, UniProt O14757)
T2 construct: gene CHEK1
Procedure, shortened: as §1

EGFR = EGFR (Homo sapiens, UniProt P00533)
Sequence of EGFR (P00533 whole entry): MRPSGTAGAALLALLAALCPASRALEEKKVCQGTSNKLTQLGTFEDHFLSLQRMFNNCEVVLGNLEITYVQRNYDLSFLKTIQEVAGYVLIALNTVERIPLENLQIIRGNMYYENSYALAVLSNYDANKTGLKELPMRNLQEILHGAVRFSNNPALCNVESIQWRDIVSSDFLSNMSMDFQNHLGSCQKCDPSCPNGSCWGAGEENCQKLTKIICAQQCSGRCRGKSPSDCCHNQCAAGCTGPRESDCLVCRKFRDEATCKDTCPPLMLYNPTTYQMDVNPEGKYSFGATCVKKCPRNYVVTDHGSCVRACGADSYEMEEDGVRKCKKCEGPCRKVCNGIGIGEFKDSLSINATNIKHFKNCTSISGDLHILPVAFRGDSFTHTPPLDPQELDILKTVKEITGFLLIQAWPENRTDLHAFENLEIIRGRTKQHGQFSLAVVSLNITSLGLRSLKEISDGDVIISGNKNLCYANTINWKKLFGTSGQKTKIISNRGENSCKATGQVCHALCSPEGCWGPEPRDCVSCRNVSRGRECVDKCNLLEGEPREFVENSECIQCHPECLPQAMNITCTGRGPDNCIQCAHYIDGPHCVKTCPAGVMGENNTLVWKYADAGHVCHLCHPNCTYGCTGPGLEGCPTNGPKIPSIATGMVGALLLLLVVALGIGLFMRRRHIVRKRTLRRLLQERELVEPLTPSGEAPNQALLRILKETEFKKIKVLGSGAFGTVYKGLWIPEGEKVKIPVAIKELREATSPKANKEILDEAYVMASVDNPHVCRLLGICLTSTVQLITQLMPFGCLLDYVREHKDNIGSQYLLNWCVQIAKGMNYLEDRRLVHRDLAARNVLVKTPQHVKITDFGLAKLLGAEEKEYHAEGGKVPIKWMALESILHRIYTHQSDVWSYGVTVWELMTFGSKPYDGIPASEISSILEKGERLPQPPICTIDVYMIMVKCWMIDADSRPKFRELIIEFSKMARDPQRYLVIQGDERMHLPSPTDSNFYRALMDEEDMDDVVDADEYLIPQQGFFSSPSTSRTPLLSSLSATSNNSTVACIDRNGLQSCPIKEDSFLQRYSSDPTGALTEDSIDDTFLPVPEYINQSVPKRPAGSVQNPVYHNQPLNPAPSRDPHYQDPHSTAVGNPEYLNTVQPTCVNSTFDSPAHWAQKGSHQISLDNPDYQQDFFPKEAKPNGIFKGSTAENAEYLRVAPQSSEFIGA
Procedure, shortened: as §1

IRAK1 = IRAK1 (Homo sapiens, UniProt P51617)
Sequence of IRAK1 (P51617 whole entry): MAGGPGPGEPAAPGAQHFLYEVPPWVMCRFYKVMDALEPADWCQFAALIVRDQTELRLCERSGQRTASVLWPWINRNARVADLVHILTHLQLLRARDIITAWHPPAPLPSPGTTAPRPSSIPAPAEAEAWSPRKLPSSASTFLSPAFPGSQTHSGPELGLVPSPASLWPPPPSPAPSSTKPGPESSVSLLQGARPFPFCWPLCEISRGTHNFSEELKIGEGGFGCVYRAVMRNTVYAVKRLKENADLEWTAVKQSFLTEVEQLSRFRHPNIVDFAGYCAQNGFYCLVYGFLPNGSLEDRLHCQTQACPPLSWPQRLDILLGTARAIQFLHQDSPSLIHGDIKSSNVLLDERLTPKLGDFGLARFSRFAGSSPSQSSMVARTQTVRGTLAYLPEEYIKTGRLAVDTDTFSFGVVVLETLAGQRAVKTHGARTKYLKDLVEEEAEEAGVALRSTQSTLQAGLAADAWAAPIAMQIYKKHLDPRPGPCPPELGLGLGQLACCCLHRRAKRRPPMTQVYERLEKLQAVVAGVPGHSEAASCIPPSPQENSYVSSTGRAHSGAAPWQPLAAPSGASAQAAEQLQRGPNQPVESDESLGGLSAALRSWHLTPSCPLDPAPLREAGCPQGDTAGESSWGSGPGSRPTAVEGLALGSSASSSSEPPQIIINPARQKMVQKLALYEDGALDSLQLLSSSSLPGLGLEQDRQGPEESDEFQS
Procedure, shortened: as §1

LCK = LCK (Homo sapiens, UniProt P06239)
Sequence of LCK (P06239 whole entry): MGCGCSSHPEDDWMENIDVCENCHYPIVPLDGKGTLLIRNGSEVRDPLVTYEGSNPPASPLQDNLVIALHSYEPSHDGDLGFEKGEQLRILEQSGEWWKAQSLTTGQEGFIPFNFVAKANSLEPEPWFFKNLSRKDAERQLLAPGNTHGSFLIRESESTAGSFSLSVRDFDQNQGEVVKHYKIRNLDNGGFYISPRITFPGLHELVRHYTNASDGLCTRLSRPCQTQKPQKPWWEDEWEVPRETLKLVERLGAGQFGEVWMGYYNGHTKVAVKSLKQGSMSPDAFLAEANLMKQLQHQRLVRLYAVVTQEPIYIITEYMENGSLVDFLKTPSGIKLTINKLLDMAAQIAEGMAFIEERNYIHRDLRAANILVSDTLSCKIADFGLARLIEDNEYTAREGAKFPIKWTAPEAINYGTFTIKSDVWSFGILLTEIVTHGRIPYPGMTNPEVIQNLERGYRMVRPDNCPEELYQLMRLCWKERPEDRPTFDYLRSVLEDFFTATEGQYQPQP
Procedure, shortened: as §1

MAP3K19 = MAP3K19 (Homo sapiens, UniProt Q56UN5)
Procedure, shortened: as §1

MARK4 = MARK4 (Homo sapiens, UniProt Q96L34)
Sequence of MARK4 (Q96L34 whole entry): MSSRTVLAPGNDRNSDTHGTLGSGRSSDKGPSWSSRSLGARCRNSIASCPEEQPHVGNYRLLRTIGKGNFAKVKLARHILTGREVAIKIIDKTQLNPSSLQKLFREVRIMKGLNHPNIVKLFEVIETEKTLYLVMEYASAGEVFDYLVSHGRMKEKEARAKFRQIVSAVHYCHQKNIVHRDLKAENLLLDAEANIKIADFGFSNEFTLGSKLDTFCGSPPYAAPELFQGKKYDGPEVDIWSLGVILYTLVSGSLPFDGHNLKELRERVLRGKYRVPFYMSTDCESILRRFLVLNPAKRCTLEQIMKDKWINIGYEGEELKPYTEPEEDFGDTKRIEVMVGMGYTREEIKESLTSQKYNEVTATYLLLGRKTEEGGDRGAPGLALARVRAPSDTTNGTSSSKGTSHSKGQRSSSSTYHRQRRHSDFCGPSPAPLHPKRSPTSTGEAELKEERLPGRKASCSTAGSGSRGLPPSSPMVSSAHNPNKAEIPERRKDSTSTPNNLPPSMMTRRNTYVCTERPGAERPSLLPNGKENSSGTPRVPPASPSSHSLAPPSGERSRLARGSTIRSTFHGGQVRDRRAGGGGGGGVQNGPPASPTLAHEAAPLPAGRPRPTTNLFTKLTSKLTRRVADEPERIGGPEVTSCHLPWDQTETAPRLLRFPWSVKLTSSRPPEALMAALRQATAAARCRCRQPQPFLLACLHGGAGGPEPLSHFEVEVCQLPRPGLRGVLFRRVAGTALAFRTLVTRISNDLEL
Procedure, shortened: as §1

NEK1 = NEK1 (Homo sapiens, UniProt Q96PY6)
Procedure, shortened: as §1

PAK2 = PAK2 (Homo sapiens, UniProt Q13177)
Sequence of PAK2 (Q13177 whole entry): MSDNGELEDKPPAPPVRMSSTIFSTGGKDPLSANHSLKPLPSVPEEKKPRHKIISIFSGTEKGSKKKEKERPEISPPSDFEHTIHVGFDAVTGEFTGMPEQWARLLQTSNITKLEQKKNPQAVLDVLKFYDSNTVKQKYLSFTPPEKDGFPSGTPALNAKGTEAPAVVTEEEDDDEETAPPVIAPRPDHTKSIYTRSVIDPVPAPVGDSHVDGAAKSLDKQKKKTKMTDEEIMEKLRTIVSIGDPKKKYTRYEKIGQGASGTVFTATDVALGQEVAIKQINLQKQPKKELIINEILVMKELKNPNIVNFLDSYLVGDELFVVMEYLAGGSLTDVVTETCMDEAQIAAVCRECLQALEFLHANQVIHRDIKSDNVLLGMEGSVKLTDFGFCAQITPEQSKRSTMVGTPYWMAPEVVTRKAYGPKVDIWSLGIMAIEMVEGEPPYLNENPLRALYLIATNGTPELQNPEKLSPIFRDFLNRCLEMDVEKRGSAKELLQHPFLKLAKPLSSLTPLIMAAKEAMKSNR
Procedure, shortened: as §1

PKD2 = molecular target: T3, PKD2 (Homo sapiens, UniProt Q9BZL6)
T3 construct: gene PRKD2
T3 sequence (Q9BZL6 whole entry): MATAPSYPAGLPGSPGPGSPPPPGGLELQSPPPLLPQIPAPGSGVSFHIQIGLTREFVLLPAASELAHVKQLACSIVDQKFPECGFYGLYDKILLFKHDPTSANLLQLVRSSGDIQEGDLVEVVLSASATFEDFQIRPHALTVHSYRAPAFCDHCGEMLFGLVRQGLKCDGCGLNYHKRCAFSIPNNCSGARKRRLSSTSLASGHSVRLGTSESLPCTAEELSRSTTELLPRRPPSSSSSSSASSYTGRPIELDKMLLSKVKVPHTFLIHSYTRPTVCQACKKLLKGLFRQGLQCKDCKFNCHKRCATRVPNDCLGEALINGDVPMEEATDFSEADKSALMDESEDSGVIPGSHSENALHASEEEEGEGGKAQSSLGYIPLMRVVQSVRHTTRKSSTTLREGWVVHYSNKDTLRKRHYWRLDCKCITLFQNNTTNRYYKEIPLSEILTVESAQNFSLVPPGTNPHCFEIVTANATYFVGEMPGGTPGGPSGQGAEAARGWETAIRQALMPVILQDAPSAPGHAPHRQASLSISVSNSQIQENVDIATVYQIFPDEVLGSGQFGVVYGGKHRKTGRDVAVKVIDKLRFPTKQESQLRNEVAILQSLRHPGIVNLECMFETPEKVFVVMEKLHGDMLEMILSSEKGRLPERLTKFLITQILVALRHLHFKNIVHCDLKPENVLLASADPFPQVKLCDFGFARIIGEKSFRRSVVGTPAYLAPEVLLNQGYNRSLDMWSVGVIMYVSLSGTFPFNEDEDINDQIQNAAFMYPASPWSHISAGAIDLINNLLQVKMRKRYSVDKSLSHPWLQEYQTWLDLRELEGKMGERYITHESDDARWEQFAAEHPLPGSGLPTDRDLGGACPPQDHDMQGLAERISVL
Procedure, shortened: as §1

p38α = molecular target: T4, p38α (Homo sapiens, UniProt Q16539)
T4 construct: gene MAPK14
T4 sequence (Q16539 whole entry): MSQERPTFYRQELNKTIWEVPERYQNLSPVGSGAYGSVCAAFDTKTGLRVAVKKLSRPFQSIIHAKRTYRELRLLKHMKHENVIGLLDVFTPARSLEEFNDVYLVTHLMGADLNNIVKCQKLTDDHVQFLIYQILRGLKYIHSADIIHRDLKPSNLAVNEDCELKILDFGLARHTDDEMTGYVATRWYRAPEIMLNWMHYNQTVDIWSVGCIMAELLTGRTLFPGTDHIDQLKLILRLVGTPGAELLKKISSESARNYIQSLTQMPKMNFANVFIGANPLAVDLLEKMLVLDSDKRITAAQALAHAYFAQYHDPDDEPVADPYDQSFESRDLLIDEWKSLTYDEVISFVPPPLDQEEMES
Procedure, shortened: as §1

p70S6K = molecular target: T5, p70S6K (Homo sapiens, UniProt P23443)
T5 construct: gene RPS6KB1
Procedure, shortened: as §1

`Nc1cn2cc(-c3cnc4c(c3)N(C(=O)OC3CCCCC3)CCO4)ccc2n1` [Zharp1-163] was tested, and the inhibition at 1 µM (ALK4; replicate Data1) was -1.47%, the inhibition at 1 µM (ALK4; replicate Data2) was -2.74% and the inhibition at 1 µM (CHK1; replicate Data1) was 16.8%. It also gave an inhibition at 1 µM (CHK1; replicate Data2) of 10.4%, an inhibition at 1 µM (EGFR; replicate Data1) of -2.16% and an inhibition at 1 µM (EGFR; replicate Data2) of -4.3%. For the same molecule, the inhibition at 1 µM (IRAK1; replicate Data1) was 1.3%, the inhibition at 1 µM (IRAK1; replicate Data2) was -3.6% and the inhibition at 1 µM (LCK; replicate Data1) was -16.9%. It also gave an inhibition at 1 µM (LCK; replicate Data2) of -10.8%, an inhibition at 1 µM (MAP3K19; replicate Data1) of -4.19% and an inhibition at 1 µM (MAP3K19; replicate Data2) of 10.2%. The inhibition at 1 µM (MARK4; replicate Data1) was 14.3%, the inhibition at 1 µM (MARK4; replicate Data2) was 0.49% and the inhibition at 1 µM (NEK1; replicate Data1) was 4.63%. It also gave an inhibition at 1 µM (NEK1; replicate Data2) of 13.4%, an inhibition at 1 µM (PAK2; replicate Data1) of -3.2% and an inhibition at 1 µM (PAK2; replicate Data2) of -2.35%. It also gave an inhibition at 1 µM (PKD2; replicate Data1) of 12%, an inhibition at 1 µM (PKD2; replicate Data2) of 6.79% and an inhibition at 1 µM (p38α; replicate Data1) of 11.8%. It also gave an inhibition at 1 µM (p38α; replicate Data2) of 9.57%, an inhibition at 1 µM (p70S6K; replicate Data1) of -3.27% and an inhibition at 1 µM (p70S6K; replicate Data2) of -3.18%.
